Measurements reported in patent US5210193A, “Piperazine derivatives” (American Cyanamid Company, priority 1990, dated 1993).
Values after ≈ are worked out from the molar mass of the structure shown.

Tests used:
Assay in all cases: in vitro antibacterial MIC, agar plate dilution
Assay type in all cases: cell-based
[1] = system: Enterobacter cloacae K 84-10; conditions: Enterobacter cloacae, K8410, 18 h, 35° C., read-out: MIC
Outline: (§1)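 Agar plate dilution on Mueller-Hinton agar, inoculum about 10^4 CFU per spot applied with a Steers replicator. MIC (mcg/ml) is the lowest compound concentration preventing visible growth after 18 h at 35 °C.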

[2] = system: Pseudomonas aeruginosa LL-1244; conditions: Pseudomonas aeruginosa, LL1244, 18 h, 35° C., read-out: MIC
Outline: as §1

[3] = system: Staphylococcus aureus CMC 83-127; conditions: Staphylococcus aureus, CMC83127, 18 h, 35° C., read-out: MIC
Outline: as §1

[4] = system: Pseudomonas aeruginosa VGH 84-4; conditions: Pseudomonas aeruginosa, VGH844, 18 h, 35° C., read-out: MIC
Outline: as §1

[5] = system: Staphylococcus epidermidis IO 83-58; conditions: IO8358, 18 hours, 35° C., read-out: MIC
Outline: as §1

[6] = system: Enterobacter cloacae VGH 84-37; conditions: Enterobacter cloacae, VGH8437, 18 h, 35° C., read-out: MIC
Outline: as §1

[7] = system: Staphylococcus aureus VGH 84-46; conditions: Staphylococcus aureus, VGH8446, 18 h, 35° C., read-out: MIC
Outline: as §1

[8] = system: Escherichia coli PRNT 311; conditions: PRNT311, 18 hours, 35° C., read-out: MIC
Outline: as §1

Klebsiella pneumoniae AD = conditions: Klebsiella pneumoniae, 18 h, 35° C., read-out: MIC
Outline: as §1

[9] = system: Staphylococcus aureus Smith; conditions: Staphylococcus aureus, 18 h, 35° C., read-out: MIC
Outline: as §1

[10] = system: Streptococcus faecalis VGH 84-65; conditions: Enterococcus faecalis, VGH8465, 18 h, 35° C., read-out: MIC
Outline: as §1

[11] = system: Staphylococcus Spp saprophiticus VGH 84-50; conditions: 18 hours, 35° C., read-out: MIC
Outline: as §1

[12] = system: Streptococcus faecalis ATTC 29212; conditions: Enterococcus faecalis, ATTC29212, 18 hours, 35° C., read-out: MIC
Outline: as §1

[13] = system: Staphylococcus epidermidis CMC 83-135; conditions: CMC83135, 18 hours, 35° C., read-out: MIC
Outline: as §1

[14] = system: Serratia marcescens K 84-18; conditions: Serratia marcescens, K8418, 18 h, 35° C., read-out: MIC
Outline: as §1

[15] = system: Klebsiella pneumoniae MOR 84-4; conditions: Klebsiella pneumoniae, MOR844, 18 h, 35° C., read-out: MIC
Outline: as §1

[16] = system: Staphylococcus aureus ATTC 29213; conditions: Staphylococcus aureus, ATTC29213, 18 h, 35° C., read-out: MIC
Outline: as §1

[17] = system: Enterobacter aerogenes VGH 84-36; conditions: Klebsiella aerogenes, VGH8436, 18 hours, 35° C., read-out: MIC
Outline: as §1

[18] = system: Serratia marcescens F 0-35; conditions: Serratia marcescens, F035, 18 h, 35° C., read-out: MIC
Outline: as §1

[19] = system: Acinetobacter calcoaceticus MOR 84-43; conditions: MOR8443, 18 hours, 35° C., read-out: MIC
Outline: as §1

[20] = system: Escherichia coli ATCC 25922; conditions: Escherichia coli, ATCC25922, 18 h, 35° C., read-out: MIC
Outline: as §1

[21] = system: Staphylococcus aureus ATCC 25913; conditions: ATCC25913, 18 hours, 35° C.
Outline: as §1

[22] = system: Morganella morganii VGH 84-11; conditions: VGH8411, 18 hours, 35° C., read-out: MIC
Outline: as §1

[23] = system: Escherichia coli CMC 84-16; conditions: Escherichia coli, CMC8416, 18 h, 35° C., read-out: MIC
Outline: as §1

[24] = system: Klebsiella oxytoca MOR 84-28; conditions: MOR8428, 18 hours, 35° C.
Outline: as §1

[25] = system: Staphylococcus aureus VGH 84-45; conditions: Staphylococcus aureus, VGH8445, 18 h, 35° C., read-out: MIC
Outline: as §1

[26] = system: Morganella morganii CMC 84-37; conditions: Morganella morganii, CMC8437, 18 h, 35° C., read-out: MIC
Outline: as §1

[27] = system: Staphylococcus epidermidis VGH 84-40; conditions: VGH8440, 18 hours, 35° C., read-out: MIC
Outline: as §1

[28] = system: Proteus rettgeri CMC 84-41; conditions: Providencia rettgeri, CMC8441, 18 h, 35° C., read-out: MIC
Outline: as §1

[29] = system: Escherichia coli CMC 84-11; conditions: Escherichia coli, CMC8411, 18 h, 35° C., read-out: MIC
Outline: as §1

Escherichia coli NAR 311 = conditions: NAR311, 18 hours, 35° C., read-out: MIC
Outline: as §1

[30] = system: Staphylococcus aureus CMC 83-128; conditions: CMC83128, 18 hours, 35° C., read-out: MIC
Outline: as §1

MIC [1]: 0.5 µg/mL (≈ 1.25 µM) | MIC [2]: 32 µg/mL (≈ 79.7 µM) | MIC [3]: 0.12 µg/mL (≈ 0.299 µM) | MIC [4]: 4 µg/mL (≈ 9.96 µM) | MIC [5]: 0.5 µg/mL (≈ 1.25 µM) | MIC [6]: 0.12 µg/mL (≈ 0.299 µM) | MIC [7]: 0.25 µg/mL (≈ 0.623 µM) | MIC [8]: 0.5 µg/mL (≈ 1.25 µM) | MIC (Klebsiella pneumoniae AD): 0.12 µg/mL (≈ 0.299 µM) | MIC [9]: 0.12 µg/mL (≈ 0.299 µM) | MIC [10]: 4 µg/mL (≈ 9.96 µM) | MIC [11]: 2 µg/mL (≈ 4.98 µM) | MIC [12]: 4 µg/mL (≈ 9.96 µM) | MIC [13]: 0.25 µg/mL (≈ 0.623 µM) | MIC [14]: 0.5 µg/mL (≈ 1.25 µM) | MIC [15]: 0.25 µg/mL (≈ 0.623 µM) | MIC [16]: 0.5 µg/mL (≈ 1.25 µM) | MIC [17]: 0.5 µg/mL (≈ 1.25 µM) | MIC [18]: 1 µg/mL (≈ 2.49 µM) | MIC [19]: 4 µg/mL (≈ 9.96 µM) | MIC [20]: 0.12 µg/mL (≈ 0.299 µM) | MIC [21]: 0.25 µg/mL (≈ 0.623 µM) | MIC [22]: 0.12 µg/mL (≈ 0.299 µM) | MIC [23]: 0.25 µg/mL (≈ 0.623 µM) | MIC [24]: 0.5 µg/mL (≈ 1.25 µM) | MIC [25]: 0.25 µg/mL (≈ 0.623 µM) | MIC [26]: 0.25 µg/mL (≈ 0.623 µM) | MIC [27]: 0.25 µg/mL (≈ 0.623 µM) | MIC [28]: 0.25 µg/mL (≈ 0.623 µM) | MIC [29]: 0.12 µg/mL (≈ 0.299 µM) | MIC (Escherichia coli NAR 311): 4 µg/mL (≈ 9.96 µM) | MIC [30]: 0.5 µg/mL (≈ 1.25 µM)
Compound: CCn1cc(C(=O)O)c(=O)c2cc(F)c(N3CCNC(c4ccsc4)C3)cc21 (centres unmarked) [Example 30]
